Values of other authors in patent US20090215102A1, “Method to Assess Breast Cancer Risk” (priority 2005, published 2009).
Where a name gives a salt, the structure may show the parent alone. Read-outs that look alike come from different tables or passages of the source. One block for each molecule: values may come before it.

What was measured:
[1] = in vivo
[2] = test system: rat mammary carcinoma induced by dimethylbenzanthracene (DMBA)
estrogen receptors = conditions: preclinical data

half-life of metabolite suggested by time to steady state [1]: ~14 days
Structure (SMILES): CC/C(=C(\c1ccccc1)c1ccc(OCCNC)cc1)c1ccccc1 [N-desmethyl tamoxifen]

Structure (SMILES): CC/C(=C(\c1ccccc1)c1ccc(OCCN(C)C)cc1)c1ccccc1 [Tamoxifen]
induction of rat mammary carcinoma induced by DMBA ([2]; rat): inhibits the induction
associated toxicity (breast cancer; particularly women aged 50 or older): increased risk of endometrial cancer, stroke, pulmonary emboli, and deep vein thrombosis
breast cancer risk reduction (breast cancer; women with a history of LCIS): 56%
breast cancer risk reduction (breast cancer; women with a history of atypical ductal hyperplasia): 86%

Structure (SMILES): CC/C(=C(\c1ccccc1)c1ccc(OCCN(C)C)cc1)c1ccccc1 [Tamoxifen citrate]
antiestrogenic properties in animal test systems ([2]; animal test systems): potent antieskogenic properties

action in uterine and breast tissues (estrogen receptors): estrogen antagonist
clearance following chronic dosing: 40 to 60 L/kg per hour
Structure (SMILES): O=C(c1ccc(OCCN2CCCCC2)cc1)c1c(-c2ccc(O)cc2)sc2cc(O)ccc12 [Raloxifene]
